ChEMBL document CHEMBL5728519, “Compounds of formulas (VII), (VIII), (IX), (XI), (XII), (XIII), and (XIV) as muscarinic receptor 4(M4) antagonists for treating neurological diseases” (2021)

How the values were obtained:
[1] = target: T1, Muscarinic acetylcholine receptor M1 (Homo sapiens, UniProt P11229); test: (§1) Binding Assay: Binding affinity (Ki) of compounds was measured by inhibition of radioligand binding to membranes from CHO cells expressing human M1, M2, M3, M4 and M5 receptors. Membranes were prepared by nitrogen cavitation and differential centrifugation as previously described (Hoare et al., Mol. Pharmacol. 2003 March; 63(3): 751-65). The radioligand employed was tritiated N-methylscopolamine, used at a concentration of 1.5 nM. A dose-response of twelve concentrations of compound was used, […]. The assay buffer was 50 mM HEPES, 100 mM NaCl, 5 mM MgCl2, 1 mM ethylenediaminetetraacetic acid, pH-adjusted to pH 7.4.
T1 sequence (P11229 whole entry): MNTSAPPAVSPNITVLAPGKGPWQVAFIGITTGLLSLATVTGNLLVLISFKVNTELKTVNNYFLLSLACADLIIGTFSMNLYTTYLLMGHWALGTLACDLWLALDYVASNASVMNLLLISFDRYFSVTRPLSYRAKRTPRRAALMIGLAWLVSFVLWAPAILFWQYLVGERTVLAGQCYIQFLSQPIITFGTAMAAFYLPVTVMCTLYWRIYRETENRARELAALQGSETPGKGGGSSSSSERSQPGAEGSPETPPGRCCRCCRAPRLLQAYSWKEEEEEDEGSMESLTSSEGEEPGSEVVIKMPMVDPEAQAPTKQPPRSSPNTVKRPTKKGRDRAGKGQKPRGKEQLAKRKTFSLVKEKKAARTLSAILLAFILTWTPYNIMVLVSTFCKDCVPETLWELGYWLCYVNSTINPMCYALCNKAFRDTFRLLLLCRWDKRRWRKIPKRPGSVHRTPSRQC

[2] = target: T2, Muscarinic acetylcholine receptor M4 (Homo sapiens, UniProt P08173); test: as §1
T2 sequence (P08173 whole entry): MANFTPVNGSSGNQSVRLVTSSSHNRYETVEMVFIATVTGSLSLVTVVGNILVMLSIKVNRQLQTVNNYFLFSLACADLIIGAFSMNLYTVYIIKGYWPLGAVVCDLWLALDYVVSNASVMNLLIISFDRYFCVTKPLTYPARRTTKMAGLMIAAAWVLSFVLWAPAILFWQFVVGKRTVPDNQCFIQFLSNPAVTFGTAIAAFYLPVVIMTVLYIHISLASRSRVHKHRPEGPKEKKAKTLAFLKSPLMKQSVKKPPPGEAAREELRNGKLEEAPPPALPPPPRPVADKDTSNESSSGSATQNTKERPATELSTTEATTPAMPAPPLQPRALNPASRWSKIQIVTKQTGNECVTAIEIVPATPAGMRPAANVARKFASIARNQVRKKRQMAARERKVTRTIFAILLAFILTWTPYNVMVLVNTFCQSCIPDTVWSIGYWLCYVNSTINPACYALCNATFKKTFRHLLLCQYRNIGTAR

Ki [2] | Structure (SMILES) | Ki [1]
– | C[C@@H]1CN(c2ncc(C(F)(F)F)c(N)n2)CCN1C(=O)NCCC1CCN(Cc2ccccc2)CC1 | 0.01 to 0.1 µM
– | C[C@@H]1CN(c2ncc(C(F)(F)F)cn2)CCN1C(=O)NCCC1CCN(Cc2ccccc2)CC1 | 0.1 to 1 µM
0.01 to 0.1 µM | COc1ccc(N2CCN(C(=O)NCCC3CCN(Cc4ccccc4)CC3)[C@H](C)C2)cc1C#N | –
